# Reference: patent US6437184B1, “Oxime compounds, their use, and intermediates for their production” (Sumitomo Chemical Company, Limited, priority 1997, dated 2002)
# Legend:
# Type in all cases: in vivo
# [1] = system: Plutella xylostella; assay: Insecticidal test against Plutella xylostella; conditions: 96 h, 50 ppm water dilution sprayed over potted cabbages, 25 ml per pot, third-instar larvae, after 4 days, read-out: mortality
# Method: To a water dilution (50 ppm) of a test compound formulation obtained according to Formulation Example 1 was added a spreading agent (New RINOU available from Nihon Noyaku K.K.) at a dilution ratio of 3000-fold. The dilution was sprayed over potted cabbages at the four to five leaf stage at a volume of 25 ml per pot. After the treated plants were air dried, ten third-instar larvae of Plutella xylostella were set free on each pot. After 4 days, the mortality was determined.
# [2] = system: Spodoptera litura; assay: Insecticidal test against Spodoptera litura; conditions: 144 h, 500 ppm water dilution, 2 ml absorbed in 13 g artificial diet, fourth-instar larvae, after 6 days
# Method: A 200-fold water dilution (500 ppm) of a test compound formulation obtained according to Formulation Example 1 or 2 was absorbed at a volume of 2 ml in an artificial diet (Insecta LF available from Nihon Nosan K.K.) having a weight of 13 g, which had been prepared in a polyethylene cup having a diameter of 11 cm. Five fourth-instar larvae of Spodoptera litura were set free in the cup. After 6 days, the survival of the larvae was examined to determine the mortality.
# [3] = system: Tetranychus urticae; assay: Acaricidal test against Tetranychus urticae; set-up: key: −: almost no damage and completely no surviving mites; ±: slight damage and some few surviving mites; +: rather smaller damage and a rather fewer surviving mites than non-treatment case; ++: same as non-treatment case; conditions: 500 ppm water dilution, 15 ml sprayed over brush bean with female adults set free 6 days before; after 8 days
# Method: About twenty female adults of Tetranychus urticae were set free on brush bean (Phaseolus vulgaris) in the primary leaf stage, which had been potted in a plastic cup for 7 days after the seeding. After 6 days, a 200-fold water dilution (500 ppm) of a test compound formulation obtained according to Formulation Example 1 or 2 was sprayed at a volume of 15 ml over the plant. After 8 days, each compound was evaluated for acaricidal activity on the following criteria.
# −: almost no damage and completely no surviving mites
# ±: slight damage and some few surviving mites
# +: rather smaller damage and a rather fewer surviving mites than non-treatment case
# ++: same as non-treatment case
# [4] = system: Musca domestica; assay: Insecticidal test against Musca domestica; conditions: 24 h, 500 ppm water dilution, 0.7 ml on filter paper with sucrose, female adults, after 1 day, read-out: mortality
# Method: In the bottom of a polyethylene cup having a diameter of 5.5 cm was placed a piece of filter paper having the same size. A 200-fold water dilution (500 ppm) of a test compound formulation obtained according to Formulation Example 1 was added dropwise at a volume of 0.7 ml on the filter paper, and about 30 mg of sucrose as a diet was uniformly placed thereon. Ten female adults of houseflies (Musca domestica) were set free in the cup, and the cup was kept covered. After 1 day, the survival of the adults was determined to determine the mortality.
# [5] = system: Helicoverpa armigera; assay: Insecticidal test against Helicoverpa armigera; conditions: 120 h, 100 ppm water dilution, cotton leaf fragment immersed 10 seconds, third-instar larvae, after 5 days
# Method: A cotton leaf fragment (diameter, 5 cm) was immersed for 10 seconds Lin a water dilution (100 ppm) of a test compound formulation obtained according to Formulation Example 1. This fragment was taken out from the dilution, air dried, and placed in a polyethylene cup having a diameter of 5.5 cm. One third-instar larva of Helicoverpa armigera was set free in each cup. Ten larvae were used for each treatment. After 5 days, the mortality of the larvae was determined.
# [6] = system: Heliothis virescens; assay: Insecticidal test against Heliothis virescens; conditions: 168 h, 100 ppm water dilution, 0.2 ml on surface of artificial diet, second-instar larvae, after 7 days
# Method: A water dilution (100 ppm) of a test compound formulation obtained according to Formulation Example 1 was added dropwise at a volume of 0.2 ml and uniformly spread over the surface of an artificial diet having a weight of 3 g, which had been prepared in a 30 ml plastic cup. After air drying, one second-instar larva of Heliothis virescens was set free in each cup. Ten larvae were used for each treatment. After 7 days, the mortality of the larvae was determined.
# [7] = system: Cydia pomonella; assay: Insecticidal test against Cydia pomonella; conditions: 168 h, 100 ppm water dilution, 0.2 ml on surface of artificial diet, eggs just before hatching, after 7 days
# Procedure, shortened: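 A 100 ppm aqueous dilution of formulated compound (0.2 ml) was spread onto 3 g artificial diet and air-dried. About 20 near-hatching Cydia pomonella eggs on wax paper were added, four replicates per treatment. Larval mortality was recorded after 7 days.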
SMILES,mortality at 50 µg/mL [1] [%],mortality at 500 µg/mL [2] [%],acaricidal activity [3],mortality at 500 µg/mL [4] [%],mortality at 100 µg/mL [5] [%],mortality at 100 µg/mL [6] [%],mortality at 100 µg/mL [7] [%]
"CC(COCCCCOc1c(Cl)cc(OCC=C(Cl)Cl)cc1Cl)=NOC(C)(C)C [(103), 4-(2,6-dichloro-4-(3,3-dichloro-2-propenyloxy)phenoxy)butyloxyacetone O-tert-butyloxime]",≥ 80,≥ 80,,,,,
"CC(=NOCCCCCCOc1c(Cl)cc(OCC=C(Cl)Cl)cc1Cl)C(C)C [(583), 3-methyl-2-butanone O-(6-(2,6-dichloro-4-(3,3-dichloro-2-propenyloxy)phenoxy)hexyl)oxime]",,,“−” or “±”,,,,
"CC(C)(C)ON=CCCOc1c(Cl)cc(OCC=C(Cl)Cl)cc1Cl [(133), 3-(2,6-dichloro-4-(3,3-dichloro-2-propenyloxy)phenoxy)propionaldehyde O-tert-butyloxime]",,≥ 80,,,,,
"CC(C)(C)ON=CCOc1c(Cl)cc(OCC=C(Cl)Cl)cc1Cl [(131), (2,6-dichloro-4-(3,3-dichloro-2-propenyloxy)phenoxy)acetaldehyde O-tert-butyloxime]",,≥ 80,,,,,
"CCON=C(C)COc1ccc(OCC=CCl)cc1 [(A), 4-(3-chloro-2-propenyloxy)phenoxyacetone O-ethyloxime, reference compound]",0,0,+,0,0,,
"CC(C)(C)ON=CCOCCCCCCOc1c(Cl)cc(OCC=C(Cl)Cl)cc1Cl [(91), 6-(2,6-dichloro-4-(3,3-dichloro-2-propenyloxy)phenoxy)hexyloxyacetaldehyde O-tert-butyloxime]",≥ 80,≥ 80,,,≥ 80,≥ 80,≥ 80
"CC(CC(C)(C)C)=NOCCCCCCOc1c(Cl)cc(OCC=C(Cl)Cl)cc1Cl [(593), 4,4-dimethyl-2-pentanone O-(6-(2,6-dichloro-4-(3,3-dichloro-2-propenyloxy)phenoxy)hexyl)oxime]",,,“−” or “±”,,,,
"CC(COCCCCCOc1c(Cl)cc(OCC=C(Cl)Cl)cc1Cl)=NOCC=C(Cl)Cl [(47), 5-(2,6-dichloro-4-(3,3-dichloro-2-propenyloxy)phenoxy)pentyloxyacetone O-(3,3-dichloro-2-propenyl)oxime]",≥ 80,≥ 80,,,,≥ 80,≥ 80
"CC(COCCCCCOc1c(Cl)cc(OCC=C(Cl)Cl)cc1Cl)=NOCC(Cl)(Cl)Cl [(173), 5-(2,6-dichloro-4-(3,3-dichloro-2-propenyloxy)phenoxy)pentyloxyacetone O-(2,2,2-trichloroethyl)oxime]",,,“−” or “±”,≥ 80,,,
"CCCON=Cc1ccc(COc2c(Cl)cc(OCC=C(Cl)Cl)cc2Cl)cc1 [(327), 4-(2,6-dichloro-4-(3,3-dichloro-2-propenyloxy)phenoxymethyl)benzaldehyde O-propyloxime]",≥ 80,,“−” or “±”,,≥ 80,,
"CC(C)CCON=Cc1ccc(Oc2ccccc2)cc1 [(B), 4-phenoxy-benzaldehyde O-(3-methylbutyl)oxime, reference compound]",,0,+,0,,,
"CC(CC(C)(C)C)=NOCCCCCOc1c(Cl)cc(OCC=C(Cl)Cl)cc1Cl [(592), 4,4-dimethyl-2-pentanone O-(5-(2,6-dichloro-4-(3,3-dichloro-2-propenyloxy)phenoxy)pentyl)oxime]",,,“−” or “±”,,,,
"CC(C)(C)ON=CCCCCCOc1c(Cl)cc(OCC=C(Cl)Cl)cc1Cl [(134), 6-(2,6-dichloro-4-(3,3-dichloro-2-propenyloxy)phenoxy)hexanal O-tert-butyloxime]",≥ 80,≥ 80,,,,≥ 80,
"CC(COCCCCCOc1c(Cl)cc(OCC=C(Cl)Cl)cc1Cl)=NOC(=O)C(C)(C)C [(178), 5-(2,6-dichloro-4-(3,3-dichloro-2-propenyloxy)phenoxy)pentyloxyacetone O-pivaloyloxime]",,,“−” or “±”,,,,
"ClC(Cl)=CCON=CCOCCCCCCOc1c(Cl)cc(OCC=C(Cl)Cl)cc1Cl [(34), 6-(2,6-dichloro-4-(3,3-dichloro-2-propenyloxy)phenoxy)hexyloxyacetaldehyde O-(3,3-dichloro-2-propenyl)oxime]",≥ 80,≥ 80,,,,≥ 80,≥ 80
"CCON=C(CC)c1ccc(OCCCOc2c(Cl)cc(OCC=C(Cl)Cl)cc2Cl)cc1 [(318), 4′-(3-(2,6-dichloro-4-(3,3-dichloro-2-propenyloxy)phenoxy)propyloxy)propiophenone O-ethyloxime]",,,“−” or “±”,≥ 80,≥ 80,,
"CCCC=NOCCCCCOc1c(Cl)cc(OCC=C(Cl)Cl)cc1Cl [(542), butanal O-(5-(2,6-dichloro-4-(3,3-dichloro-2-propenyloxy)phenoxy)pentyl)oxime]",,,“−” or “±”,≥ 80,,,
"CC(C)(C)ON=CCOCCCOc1c(Cl)cc(OCC=C(Cl)Cl)cc1Cl [(90), 3-(2,6-dichloro-4-(3,3-dichloro-2-propenyloxy)phenoxy)propyloxyacetaldehyde O-tert-butyloxime]",≥ 80,≥ 80,,,,≥ 80,≥ 80
"CC(CC(C)C)=NOCCCCCCOc1c(Cl)cc(OCC=C(Cl)Cl)cc1Cl [(589), 4-methyl-2-pentanone O-(6-(2,6-dichloro-4-(3,3-dichloro-2-propenyloxy)phenoxy)hexyl)oxime]",≥ 80,,“−” or “±”,,,,
"CC(=NOCCCCCOc1c(Cl)cc(OCC=C(Cl)Cl)cc1Cl)C(C)C [(582), 3-methyl-2-butanone O-(5-(2,6-dichloro-4-(3,3-dichloro-2-propenyloxy)phenoxy)pentyl)oxime]",,,“−” or “±”,,≥ 80,,
"CC(COCCOCCOc1c(Cl)cc(OCC=C(Cl)Cl)cc1Cl)=NOC(C)(C)C [(203), 2-(2-(2,6-dichloro-4-(3,3-dichloro-2-propenyloxy)phenoxy)-ethoxy)ethoxyacetone O-tert-butyloxime]",,≥ 80,,≥ 80,,,
"ClC(Cl)=CCON=CCOCCCOc1c(Cl)cc(OCC=C(Cl)Cl)cc1Cl [(33), 3-(2,6-dichloro-4-(3,3-dichloro-2-propenyloxy)phenoxy)propyloxyacetaldehyde O-(3,3-dichloro-2-propenyl)oxime]",≥ 80,≥ 80,,,,≥ 80,≥ 80
"CON=Cc1ccc(OCCCCOc2c(Cl)cc(OCC=C(Cl)Cl)cc2Cl)cc1 [(306), 4-(4-(2,6-dichloro-4-(3,3-dichloro-2-propenyloxy)phenoxy)butyloxy)benzaldehyde O-methyloxime]",,,“−” or “±”,,,,≥ 80
"CC(C)(C)ON=CCOCCCCOc1c(Cl)cc(OCC=C(Cl)Cl)cc1Cl [(6), 4-(2,6-dichloro-4-(3,3-dichloro-2-propenyloxy)phenoxy)butyloxyacetaldehyde O-tert-butyloxime]",,,“−” or “±”,≥ 80,,,≥ 80
